Earlier results as cited in publication PMC8513935.

Legend:
[1] = log P octanol/water from commercial databases, averaged (the ESI); settings: Octanol (wet), 25 C
[2] = experimental, compiled by the authors from the literature (the ESI cites the sources)
[3] = derived by the authors as gas->solvent minus gas->water (a hypothetical dry solvent; the ESI), not a two-phase measurement

c1ccc2c(c1)Cc1ccccc1-2
log K of transfer, water to solvent [1]: 4.18 log10 K
log K of transfer, gas to solvent ([2]; 2-Methylpropan-1-ol, 25 C): 6.75 log10 K
log K of transfer, gas to solvent ([2]; 2-Methylpropan-2-ol, 25 C): 6.48 log10 K
log K of transfer, gas to solvent ([2]; 3-Methylbutan-1-ol, 25 C): 6.56 log10 K
log K of transfer, gas to solvent ([2]; Acetonitrile, 25 C): 7.12 log10 K
log K of transfer, gas to solvent ([2]; Butan-1-ol, 25 C): 6.71 log10 K
log K of transfer, gas to solvent ([2]; Butan-2-ol, 25 C): 6.56 log10 K
log K of transfer, gas to solvent ([2]; Decan-1-ol, 25 C): 6.84 log10 K
log K of transfer, gas to solvent ([2]; Ethanol, 25 C): 6.54 log10 K
log K of transfer, gas to solvent ([2]; Heptan-1-ol, 25 C): 6.84 log10 K
log K of transfer, gas to solvent ([2]; Hexadecane, 25 C): 6.92 log10 K
log K of transfer, gas to solvent ([2]; Hexan-1-ol, 25 C): 6.79 log10 K
log K of transfer, gas to solvent ([2]; Hexane, 25 C): 6.81 log10 K
log K of transfer, gas to solvent ([2]; Methanol, 25 C): 6.48 log10 K
log K of transfer, gas to solvent ([2]; Octan-1-ol, 25 C): 6.83 log10 K
log K of transfer, gas to solvent ([2]; Pentan-1-ol, 25 C): 6.77 log10 K
log K of transfer, gas to solvent ([2]; Propan-1-ol, 25 C): 6.66 log10 K
log K of transfer, gas to solvent ([2]; Propan-2-ol, 25 C): 6.54 log10 K
log K of transfer, gas to solvent ([2]; Water, 25 C): 2.45 log10 K
log K of transfer, water to solvent ([3]; 2-Methylpropan-1-ol, 25 C): 4.3 log10 K
log K of transfer, water to solvent ([3]; 2-Methylpropan-2-ol, 25 C): 4.03 log10 K
log K of transfer, water to solvent ([3]; 3-Methylbutan-1-ol, 25 C): 4.11 log10 K
log K of transfer, water to solvent ([3]; Acetonitrile, 25 C): 4.67 log10 K
log K of transfer, water to solvent ([3]; Butan-1-ol, 25 C): 4.26 log10 K
log K of transfer, water to solvent ([3]; Butan-2-ol, 25 C): 4.11 log10 K
log K of transfer, water to solvent ([3]; Decan-1-ol, 25 C): 4.39 log10 K
log K of transfer, water to solvent ([3]; Ethanol, 25 C): 4.09 log10 K
log K of transfer, water to solvent ([3]; Heptan-1-ol, 25 C): 4.39 log10 K
log K of transfer, water to solvent ([3]; Hexadecane, 25 C): 4.47 log10 K
log K of transfer, water to solvent ([3]; Hexan-1-ol, 25 C): 4.34 log10 K
log K of transfer, water to solvent ([3]; Hexane, 25 C): 4.36 log10 K
log K of transfer, water to solvent ([3]; Methanol, 25 C): 4.03 log10 K
log K of transfer, water to solvent ([3]; Octan-1-ol(dry), 25 C): 4.38 log10 K
log K of transfer, water to solvent ([3]; Pentan-1-ol, 25 C): 4.32 log10 K
log K of transfer, water to solvent ([3]; Propan-1-ol, 25 C): 4.21 log10 K
log K of transfer, water to solvent ([3]; Propan-2-ol, 25 C): 4.09 log10 K

CCC(C)=O
log K of transfer, water to solvent [1]: 0.29 log10 K
log K of transfer, gas to solvent ([2]; 1,2-Dichloroethane, 25 C): 3.64 log10 K
log K of transfer, gas to solvent ([2]; 2-Methylpropan-1-ol, 25 C): 2.99 log10 K
log K of transfer, gas to solvent ([2]; 2-Methylpropan-2-ol, 25 C): 3.11 log10 K
log K of transfer, gas to solvent ([2]; 3-Methylbutan-1-ol, 25 C): 3.01 log10 K
log K of transfer, gas to solvent ([2]; Acetonitrile, 25 C): 3.48 log10 K
log K of transfer, gas to solvent ([2]; Benzene, 25 C): 3.27 log10 K
log K of transfer, gas to solvent ([2]; Butan-1-ol, 25 C): 3.02 log10 K
log K of transfer, gas to solvent ([2]; Butan-2-ol, 25 C): 3.05 log10 K
log K of transfer, gas to solvent ([2]; Butanone, 25 C): 3.36 log10 K
log K of transfer, gas to solvent ([2]; Butyronitrile, 25 C): 3.38 log10 K
log K of transfer, gas to solvent ([2]; CCl4, 25 C): 2.99 log10 K
log K of transfer, gas to solvent ([2]; Chlorobenzene, 25 C): 3.29 log10 K
log K of transfer, gas to solvent ([2]; Chloroform, 25 C): 3.87 log10 K
log K of transfer, gas to solvent ([2]; Cyclohexane, 25 C): 2.47 log10 K
log K of transfer, gas to solvent ([2]; Cyclohexanone, 25 C): 3.29 log10 K
log K of transfer, gas to solvent ([2]; Di-n-butyl ether, 25 C): 2.73 log10 K
log K of transfer, gas to solvent ([2]; Dichloromethane, 25 C): 3.86 log10 K
log K of transfer, gas to solvent ([2]; Diethyl Ether, 25 C): 3.03 log10 K
log K of transfer, gas to solvent ([2]; Ethanol, 25 C): 3.16 log10 K
log K of transfer, gas to solvent ([2]; Hexadecane, 25 C): 2.29 log10 K
log K of transfer, gas to solvent ([2]; Hexan-1-ol, 25 C): 2.84 log10 K
log K of transfer, gas to solvent ([2]; Hexane, 25 C): 2.49 log10 K
log K of transfer, gas to solvent ([2]; Methanol, 25 C): 3.34 log10 K
log K of transfer, gas to solvent ([2]; Octan-1-ol, 25 C): 2.77 log10 K
log K of transfer, gas to solvent ([2]; Pentan-1-ol, 25 C): 2.85 log10 K
log K of transfer, gas to solvent ([2]; Perfluoroalkane, 25 C): 1.76 log10 K
log K of transfer, gas to solvent ([2]; Propan-1-ol, 25 C): 3.07 log10 K
log K of transfer, gas to solvent ([2]; Propan-2-ol, 25 C): 2.99 log10 K
log K of transfer, gas to solvent ([2]; Propanone, 25 C): 3.42 log10 K
log K of transfer, gas to solvent ([2]; Tetrahydrofuran, 25 C): 3.33 log10 K
log K of transfer, gas to solvent ([2]; Toluene, 25 C): 3.13 log10 K
log K of transfer, gas to solvent ([2]; Water, 25 C): 2.72 log10 K
log K of transfer, water to solvent ([3]; 1,2-Dichloroethane, 25 C): 0.92 log10 K
log K of transfer, water to solvent ([3]; 2-Methylpropan-1-ol, 25 C): 0.27 log10 K
log K of transfer, water to solvent ([3]; 2-Methylpropan-2-ol, 25 C): 0.39 log10 K
log K of transfer, water to solvent ([3]; 3-Methylbutan-1-ol, 25 C): 0.29 log10 K
log K of transfer, water to solvent ([3]; Acetone, 25 C): 0.7 log10 K
log K of transfer, water to solvent ([3]; Acetonitrile, 25 C): 0.76 log10 K
log K of transfer, water to solvent ([3]; Benzene, 25 C): 0.55 log10 K
log K of transfer, water to solvent ([3]; Butan-1-ol, 25 C): 0.3 log10 K
log K of transfer, water to solvent ([3]; Butan-2-ol, 25 C): 0.33 log10 K
log K of transfer, water to solvent ([3]; Butanone, 25 C): 0.64 log10 K
log K of transfer, water to solvent ([3]; Butyronitrile, 25 C): 0.66 log10 K
log K of transfer, water to solvent ([3]; CCl4, 25 C): 0.27 log10 K
log K of transfer, water to solvent ([3]; Chlorobenzene, 25 C): 0.57 log10 K
log K of transfer, water to solvent ([3]; Chloroform, 25 C): 1.15 log10 K
log K of transfer, water to solvent ([3]; Cyclohexane, 25 C): -0.246 log10 K
log K of transfer, water to solvent ([3]; Cyclohexanone, 25 C): 0.574 log10 K
log K of transfer, water to solvent ([3]; Di-n-butyl ether, 25 C): 0.00999 log10 K
log K of transfer, water to solvent ([3]; Dichloromethane, 25 C): 1.14 log10 K
log K of transfer, water to solvent ([3]; Diethyl Ether, 25 C): 0.31 log10 K
log K of transfer, water to solvent ([3]; Ethanol, 25 C): 0.44 log10 K
log K of transfer, water to solvent ([3]; Hexadecane, 25 C): -0.433 log10 K
log K of transfer, water to solvent ([3]; Hexan-1-ol, 25 C): 0.122 log10 K
log K of transfer, water to solvent ([3]; Hexane, 25 C): -0.23 log10 K
log K of transfer, water to solvent ([3]; Methanol, 25 C): 0.62 log10 K
log K of transfer, water to solvent ([3]; Octan-1-ol(dry), 25 C): 0.05 log10 K
log K of transfer, water to solvent ([3]; Pentan-1-ol, 25 C): 0.13 log10 K
log K of transfer, water to solvent ([3]; Perfluoroalkane, 25 C): -0.957 log10 K
log K of transfer, water to solvent ([3]; Propan-1-ol, 25 C): 0.35 log10 K
log K of transfer, water to solvent ([3]; Propan-2-ol, 25 C): 0.27 log10 K
log K of transfer, water to solvent ([3]; Tetrahydrofuran, 25 C): 0.61 log10 K
log K of transfer, water to solvent ([3]; Toluene, 25 C): 0.41 log10 K
